From patent US12338256B2, “Aza-tetracyclic oxazepine compounds and uses thereof” (Genentech, Inc., priority 2022, dated 2025)

Assays:
[1] = system: HPAC (homozygous mutant KRAS G12D human pancreatic cell line); experiment: KRAS 3D-Cell Proliferation Assay, HPAC (Example 503); type: cell-based; details: Homo sapiens, HPAC, 168 h, HPAC 3D culture, 7 days, CellTiter-Glo 3D; read-out: Prolif HPAC 3D ATP IC50
How it was run: (§1)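 KRAS G12D homozygous pancreatic lines and KRAS wild-type lung lines grown as 3D cultures in ultra-low-attachment wells in RPMI-1640/10% FBS, dosed after overnight with compound dilution series (0.3% DMSO final) for 7 days at 37 °C. ATP read by CellTiter-Glo 3D luminescence; IC50 from 4-parameter Hill fit, normalized to DMSO and 1 μM staurosporine.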

[2] = system: H1975 (KRAS wild type human lung adenocarcinoma cell line); experiment: KRAS 3D-Cell Proliferation Assay, H1975 (Example 503); type: cell-based; details: Homo sapiens, NCI-H1975, 168 h, H1975 3D culture, 7 days, CellTiter-Glo 3D; read-out: Prolif H1975 3D ATP IC50
How it was run: as §1

Compound	IC50 [1]	IC50 [2]
Cc1c(F)c(N)nc(-c2nc3c4c(nc(OC[C@@]56CCCN5CC5(CC5(F)F)C6)nc4c2F)N2C[C@H]4CC[C@H](N4)[C@H]2[C@H](C)O3)c1C(F)(F)F (stereo partly drawn) [Compound 192, 6-((5S,5aS,6S,9R)-12-(((7a′S)-2,2-Difluorodihydro-1′H,3′H-spiro[cyclopropane-1,2′-pyrrolizin]-7a′(5′H)-yl)methoxy)-1-fluoro-5-methyl-5a,6,7,8,9,10-hexahydro-5H-4-oxa-3,10a,11,13,14-pentaaza[6,9]methanonaphtho[1,8-ab]heptalene-2-yl)-3-fluoro-4-methyl-5-(trifluoromethyl)pyridin-2-amine]	7.17 nM	1280 nM
C[C@@H]1Oc2nc(N(C)c3ccc(F)c(N)c3)c(F)c3nc(OC[C@@]45CCCN4C[C@H](F)C5)nc(c23)N2C[C@H]3CC[C@H](N3)[C@@H]12 [Compound 193, 4-fluoro-N^1-((5S,5aS,6S,9R)-1-fluoro-12-(((2R,7aS)-2-fluorotetrahydro-1H-pyrrolizin-7a(5H)-yl)methoxy)-5-methyl-5a,6,7,8,9,10-hexahydro-5H-4-oxa-3,10a,11,13,14-pentaaza-6,9-methanonaphtho[1,8-ab]heptalen-2-yl)-N^1-methylbenzene-1,3-diamine]	2000 nM	20000 nM
Cc1c(F)c(N)c(F)c(-c2nc3c4c(nc(OC[C@@]56CCCN5C[C@H](F)C6)nc4c2F)N2C[C@H]4CC[C@H](N4)[C@H]2[C@H](C)O3)c1Cl [Compound 195, 4-Chloro-2,6-difluoro-3-((5S,5aS,6S,9R)-1-fluoro-12-(((2R,7aS)-2-fluorotetrahydro-1H-pyrrolizin-7a(5H)-yl)methoxy)-5-methyl-5a,6,7,8,9,10-hexahydro-5H-4-oxa-3,10a,11,13,14-pentaaza-6,9-methanonaphtho[1,8-ab]heptalen-2-yl)-5-methylaniline]	22.1 nM	1340 nM
C[C@@H]1Oc2nc(-c3c(F)ccc4cc[nH]c(=O)c34)c(F)c3nc(OC[C@@]45CCCN4C[C@H](F)C5)nc(c23)N2C[C@H]3CC[C@H](N3)[C@@H]12 [Compound 196, 7-Fluoro-8-((5S,5aS,6S,9R)-1-fluoro-12-(((2R,7aS)-2-fluorotetrahydro-1H-pyrrolizin-7a(5H)-yl)methoxy)-5-methyl-5a,6,7,8,9,10-hexahydro-5H-4-oxa-3,10a,11,13,14-pentaaza-6,9-methanonaphtho[1,8-ab]heptalen-2-yl)isoquinolin-1(2H)-one]	20000 nM	20000 nM
Cc1nc(N)c(Cl)c(-c2nc3c4c(nc(OC[C@@]56CCCN5C[C@H](F)C6)nc4c2F)N2C[C@H]4CC[C@H](N4)[C@H]2[C@H](C)O3)c1C(F)(F)F [Compound 197, 3-Chloro-4-((5S,5aS,6S,9R)-1-fluoro-12-(((2R,7aS)-2-fluorotetrahydro-1H-pyrrolizin-7a(5H)-yl)methoxy)-5-methyl-5a,6,7,8,9,10-hexahydro-5H-4-oxa-3,10a,11,13,14-pentaaza-6,9-methanonaphtho[1,8-ab]heptalen-2-yl)-6-methyl-5-(trifluoromethyl)pyridin-2-amine]	9.79 nM	468 nM
Cc1nc(N)c(C)c(-c2nc3c4c(nc(OC[C@@]56CCCN5C[C@H](F)C6)nc4c2F)N2C[C@H]4CC[C@H](N4)[C@H]2[C@H](C)O3)c1C(F)(F)F [Compound 198, 4-((5S,5aS,6S,9R)-1-Fluoro-12-(((2R,7aS)-2-fluorotetrahydro-1H-pyrrolizin-7a(5H)-yl)methoxy)-5-methyl-5a,6,7,8,9,10-hexahydro-5H-4-oxa-3,10a,11,13,14-pentaaza-6,9-methanonaphtho[1,8-ab]heptalen-2-yl)-3,6-dimethyl-5-(trifluoromethyl)pyridin-2-amine]	13 nM	3720 nM
C[C@@H]1Oc2nc(-c3cc(N)cc4c3CC4)c(F)c3nc(OC[C@@]45CCCN4C[C@H](F)C5)nc(c23)N2C[C@H]3CC[C@H](N3)[C@@H]12 [Compound 201, 5-((5S,5aS,6S,9R)-1-Fluoro-12-(((2R,7aS)-2-fluorotetrahydro-1H-pyrrolizin-7a(5H)-yl)methoxy)-5-methyl-5a,6,7,8,9,10-hexahydro-5H-4-oxa-3,10a,11,13,14-pentaaza-6,9-methanonaphtho[1,8-ab]heptalen-2-yl)bicyclo[4.2.0]octa-1(6),2,4-trien-3-amine]	407 nM	10600 nM
Cc1c(F)c(O)cc(-c2nc3c4c(nc(OC[C@@]56CCCN5C[C@H](F)C6)nc4c2F)N2C[C@H]4CC[C@H](N4)[C@H]2[C@H](C)O3)c1C(F)(F)F [Compound 202, 2-Fluoro-5-((5S,5aS,6S,9R)-1-fluoro-12-(((2R,7aS)-2-fluorotetrahydro-1H-pyrrolizin-7a(5H)-yl)methoxy)-5-methyl-5a,6,7,8,9,10-hexahydro-5H-4-oxa-3,10a,11,13,14-pentaaza-6,9-methanonaphtho[1,8-ab]heptalen-2-yl)-3-methyl-4-(trifluoromethyl)phenol]	2000 nM	20000 nM
Cc1c(F)ccc(-c2nc3c4c(nc(OC[C@@]56CCCN5C[C@H](F)C6)nc4c2F)N2C[C@H]4CC[C@H](N4)[C@H]2[C@H](C)O3)c1C(F)(F)F [Compound 203, (5S,5aS,6S,9R)-1-fluoro-2-(4-fluoro-3-methyl-2-(trifluoromethyl)phenyl)-12-(((2R,7aS)-2-fluorotetrahydro-1H-pyrrolizin-7a(5H)-yl)methoxy)-5-methyl-5a,6,7,8,9,10-hexahydro-5H-4-oxa-3,10a,11,13,14-pentaaza-6,9-methanonaphtho[1,8-ab]heptalene]	520 nM	20000 nM
Cc1c(F)c(N)c(F)c(-c2nc3c4c(nc(OC[C@@]56CCCN5C[C@H](F)C6)nc4c2F)N2C[C@H]4CC[C@H](N4)[C@H]2[C@H](C)O3)c1I [Compound 204, 2,6-Difluoro-3-((5S,5aS,6S,9R)-1-fluoro-12-(((2R,7aS)-2-fluorotetrahydro-1H-pyrrolizin-7a(5H)-yl)methoxy)-5-methyl-5a,6,7,8,9,10-hexahydro-5H-4-oxa-3,10a,11,13,14-pentaaza-6,9-methanonaphtho[1,8-ab]heptalen-2-yl)-4-iodo-5-methylaniline]	18.9 nM	1420 nM
Cc1nc(N)cc(-c2nc3c4c(nc(OCC5(CN6CC7COCC7C6)CC5)nc4c2F)N2C[C@H]4CC[C@H](N4)[C@H]2[C@H](C)O3)c1C(F)(F)F (stereo partly drawn) [Compound 205, 4-((5S,5aS,6S,9R)-1-Fluoro-5-methyl-12-((1-((tetrahydro-1H-furo[3,4-c]pyrrol-5(3H)-yl)methyl)cyclopropyl)methoxy)-5a,6,7,8,9,10-hexahydro-5H-4-oxa-3,10a,11,13,14-pentaaza-6,9-methanonaphtho[1,8-ab]heptalen-2-yl)-6-methyl-5-(trifluoromethyl)pyridin-2-amine]	3.35 nM	1130 nM
Cc1nc(N)cc(-c2nc3c4c(nc(OCC5(CN6CC7CCC(C6)O7)CC5)nc4c2F)N2C[C@H]4CC[C@H](N4)[C@H]2[C@H](C)O3)c1C(F)(F)F [Compound 207, 4-((5S,5aS,6S,9R)-12-((1-((8-oxa-3-azabicyclo[3.2.1]octan-3-yl)methyl)cyclopropyl)methoxy)-1-fluoro-5-methyl-5a,6,7,8,9,10-hexahydro-5H-4-oxa-3,10a,11,13,14-pentaaza-6,9-methanonaphtho[1,8-ab]heptalene-2-yl)-6-methyl-5-(trifluoromethyl)pyridin-2-amine]	2.36 nM	1420 nM
Cc1nc(N)cc(-c2nc3c4c(nc(OCC5(CN6C[C@@H]7C[C@H]6CO7)CC5)nc4c2F)N2C[C@H]4CC[C@H](N4)[C@H]2[C@H](C)O3)c1C(F)(F)F [Compound 208, 4-((5S,5aS,6S,9R)-12-((1-(((1S,4S)-2-Oxa-5-azabicyclo[2.2.1]heptan-5-yl)methyl)cyclopropyl)methoxy)-1-fluoro-5-methyl-5a,6,7,8,9,10-hexahydro-5H-4-oxa-3,10a,11,13,14-pentaaza-6,9-methanonaphtho[1,8-ab]heptalene-2-yl)-6-methyl-5-(trifluoromethyl)pyridin-2-amine]	4.89 nM	3630 nM
Cc1nc(N)cc(-c2nc3c4c(nc(OCC5(CN6C[C@H]7C[C@@H]6CO7)CC5)nc4c2F)N2C[C@H]4CC[C@H](N4)[C@H]2[C@H](C)O3)c1C(F)(F)F [Compound 209, 4-((5S,5aS,6S,9R)-12-((1-(((1R,4R)-2-Oxa-5-azabicyclo[2.2.1]heptan-5-yl)methyl)cyclopropyl)methoxy)-1-fluoro-5-methyl-5a,6,7,8,9,10-hexahydro-5H-4-oxa-3,10a,11,13,14-pentaaza-6,9-methanonaphtho[1,8-ab]heptalene-2-yl)-6-methyl-5-(trifluoromethyl)pyridin-2-amine]	3.47 nM	282 nM
Cc1nc(N)cc(-c2nc3c4c(nc(OCC5(CN6CC7CCC6CO7)CC5)nc4c2F)N2C[C@H]4CC[C@H](N4)[C@H]2[C@H](C)O3)c1C(F)(F)F [Compound 211, 4-((5S,5aS,6S,9R)-12-((1-((2-Oxa-5-azabicyclo[2.2.2]octan-5-yl)methyl)cyclopropyl)methoxy)-1-fluoro-5-methyl-5°,6,7,8,9,10-hexahydro-5H-4-oxa-3,10°,11,13,14-pentaaza-6,9-methanonaphtho[1,8-ab]heptalen-2-yl)-6-methyl-5-(trifluoromethyl)pyridin-2-amine]	1.45 nM	1150 nM
Cc1nc(N)cc(-c2nc3c4c(nc(OCC5(CN6CCOC7(CC7)C6)CC5)nc4c2F)N2C[C@H]4CC[C@H](N4)[C@H]2[C@H](C)O3)c1C(F)(F)F [Compound 212, 4-((5S,5aS,6S,9R)-12-((1-((4-Oxa-7-azaspiro[2.5]octan-7-yl)methyl)cyclopropyl)methoxy)-1-fluoro-5-methyl-5a,6,7,8,9,10-hexahydro-5H-4-oxa-3,10a,11,13,14-pentaaza[6,9]methanonaphtho[1,8-ab]heptalene-2-yl)-6-methyl-5-(trifluoromethyl)pyridin-2-amine]	1.64 nM	389 nM
